Results taken from patent publication US8044211B2 (Chroma Therapeutics Ltd., priority 2006, dated 2011).

How the values were obtained:
THP-1 TNFα release = experiment: LPS-stimulation of THP-1 cells, TNF-α by ELISA; format: cell-based; settings: Homo sapiens, THP-1; IC50 range; LPS 1 μg/ml, 6 hrs; read-out: Inhibitor activity versus THP-1 TNFα release
Description: THP-1 cells were plated in 100 μl at a density of 4×10^4 cells/well in V-bottomed 96 well tissue culture treated plates and incubated at 37° C. in 5% CO2 for 16 hrs. 2 hrs after the addition of the inhibitor in […], of tissue culture media, the cells were stimulated with LPS (E. coli strain 005:B5, Sigma) at a final concentration of 1 μg/ml and incubated at 37° C. in 5% CO2 for 6 hrs. TNF-α levels were measured from cell-free supernatants by sandwich ELISA (R&D Systems #QTA00B).

p38 MAP Kinase a = molecular target: T1, p38 MAP Kinase a (Homo sapiens, UniProt Q16539); experiment: p38 MAP Kinase activity, radiometric filter-binding assay (Upstate); format: biochemical; settings: IC50 range; ATP at or close to Km; read-out: Inhibitor activity versus p38 MAPKa
T1 construct: purchased Upstate (Dundee UK)
T1 sequence (Q16539 whole entry): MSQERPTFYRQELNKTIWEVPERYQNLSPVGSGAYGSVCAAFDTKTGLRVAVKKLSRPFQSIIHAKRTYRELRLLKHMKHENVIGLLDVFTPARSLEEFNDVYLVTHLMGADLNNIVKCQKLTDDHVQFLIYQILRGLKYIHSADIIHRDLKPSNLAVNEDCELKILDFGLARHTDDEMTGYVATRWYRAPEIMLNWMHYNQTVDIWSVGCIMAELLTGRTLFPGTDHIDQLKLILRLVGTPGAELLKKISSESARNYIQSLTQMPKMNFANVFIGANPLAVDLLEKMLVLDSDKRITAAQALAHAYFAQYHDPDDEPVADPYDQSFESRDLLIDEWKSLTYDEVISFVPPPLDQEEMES
Outline: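 Human p38 MAP kinase α (5-10 mU) with 0.33 mg/mL myelin basic protein, 25 mM Tris pH 7.5, 0.002 mM EGTA, 10 mM Mg acetate and [γ-33P]ATP at or near Km; 40 min at RT. Phosphoric acid stop, P30 filter binding and scintillation counting; IC50 from 9-step ⅓-log dilutions from 10 μM top concentration, duplicates.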

[1] = tested on: human whole blood TNFα release; experiment: LPS-stimulation of human whole blood, TNF-α by ELISA; format: cell-based; settings: IC50 range, LPS 100 ng/ml, 6 hrs, read-out: Inhibitor activity versus human whole blood TNFα release
Description: Whole blood was taken by venous puncture using heparinised vacutainers (Becton Dickinson) and diluted in an equal volume of RPMI 1640 tissue culture media (Sigma). 100 μl was plated in V-bottomed 96 well tissue culture treated plates. 2 hrs after the addition of the inhibitor in 100 μl of RPMI 1640 media, the blood was stimulated with LPS (E. coli strain 005:B5, Sigma) at a final concentration of 100 ng/ml and incubated at 37° C. in 5% CO2 for 6 hrs. TNF-α levels were measured from cell-free supernatants by sandwich ELISA (R&D Systems #QTA00B)

SMILES | IC50 (THP-1 TNFα release) | IC50 (p38 MAP Kinase a) | IC50 [1]
CC(C)C[C@H](NCCc1ccc(-n2c(N)c(C(=O)c3ccc(F)cc3F)ccc2=O)cc1)C(=O)OC1CCCC1 [Example 59, Cyclopentyl N-[2-(4-{6-amino-5-[(2,4-difluorophenyl)carbonyl]-2-oxopyridin-1(2H)-yl}phenyl)ethyl]-L-leucinate] | < 100 nM | 100 to 1000 nM | 100 to 1000 nM
NCC[C@H](NCCCOc1cc(F)c(-n2c(N)c(C(=O)c3ccc(F)cc3F)ccc2=O)c(F)c1)C(=O)OC1CCCC1 [Example 52, Cyclopentyl(2S)-4-amino-2-[(3-{4-[6-amino-5-(2,4-difluorobenzoyl)-2-oxopyridin-1(2H)-yl]-3,5-difluorophenoxy}propyl)amino]butanoate] | < 100 nM | < 100 nM | 100 to 1000 nM
Nc1c(C(=O)c2ccc(F)cc2F)ccc(=O)n1-c1c(F)cc(OCCCN[C@@H](C(=O)OC2CCCC2)c2ccccc2)cc1F [Example 42, Cyclopentyl (2R)-[(3-{4-[6-amino-5-(2,4-difluorobenzoyl)-2-oxopyridin-1 (2H)-yl]-3,5-difluorophenoxy}propyl)amino](phenyl)acetate] | < 100 nM | < 100 nM | 100 to 1000 nM
CC(C)C[C@H](NCCc1ccc(-n2c(N)c(C(=O)c3ccc(F)cc3)ccc2=O)cc1)C(=O)OC1CCCC1 [Example 57, Cyclopentyl N-[2-(4-{6-amino-5-[(4-fluorophenyl)carbonyl]-2-oxopyridin-1(2H)-yl}phenyl)ethyl]-L-leucinate] | < 100 nM | 100 to 1000 nM | 100 to 1000 nM
Nc1c(C(=O)c2ccc(F)cc2F)ccc(=O)n1-c1c(F)cc(OCCCN[C@@H](Cc2ccccc2)C(=O)OC2CCCC2)cc1F [Example 21, Cyclopentyl(S)-2-(3-{4-[6-Amino-5-(2,4-difluorobenzoyl)-2-oxo-2H-pyridin-1-yl]-3,5-difluorophenoxy}-propylamino)-3-phenyl propionate] | < 100 nM | < 100 nM | > 1000 nM
CC(C)C[C@H](NCCCOc1cc(F)c(-n2c(N)c(C(=O)c3ccc(F)cc3F)ccc2=O)c(F)c1)C(=O)OCCN(C)C [Example 46, 2-(Dimethylamino)ethyl N-(3-{4-[6-amino-5-(2,4-difluorobenzoyl)-2-oxopyridin-1(2H)-yl]-3,5-difluorophenoxy}propyl)-L-leucinate] | < 100 nM | 100 to 1000 nM | 100 to 1000 nM
CC(C)C[C@H](NCCCCCOc1cc(F)c(-n2c(N)c(C(=O)c3ccc(F)cc3F)ccc2=O)c(F)c1)C(=O)OC1CCCC1 [Example 53, Cyclopentyl N-(5-{4-[6-amino-5-(2,4-difluorobenzoyl)-2-oxopyridin-1(2H)-yl]-3,5-difluorophenoxy}pentyl)-L-leucinate] | < 100 nM | < 100 nM | 100 to 1000 nM
CC(C)(C)OC(=O)[C@@H](NCCCOc1cc(F)c(-n2c(N)c(C(=O)c3ccc(F)cc3F)ccc2=O)c(F)c1)c1ccccc1 [Example 36, tert-Butyl(S)-(3-{4-[6-Amino-5-(2,4-difluorobenzoyl)-2-oxo-2H-pyridin-1-yl]-3,5-difluorophenoxy}propylamino)phenyl acetate] | < 100 nM | < 100 nM | > 1000 nM
CC(C)C[C@H](NCCCOc1cc(F)c(-n2c(N)c(C(=O)c3ccc(F)cc3F)ccc2=O)c(F)c1)C(=O)OC(C)(C)C [Example 38, tert-Butyl(S)-2-(3-{4-[6-Amino-5-(2,4-difluorobenzoyl)-2-oxo-2H-pyridin-1-yl]-3,5-difluorophenoxy}propylamino)-4-methyl pentanoate] | < 100 nM | < 100 nM | > 1000 nM
CC(C)C[C@H](NCc1cc(F)c(-n2c(N)c(C(=O)c3ccc(F)cc3F)ccc2=O)c(F)c1)C(=O)OC1CCCC1 [Example 11] | 100 to 1000 nM | < 100 nM | > 1000 nM
CC(C)C[C@H](NCCCOc1cc(F)c(-n2c(N)c(C(=O)c3ccc(F)cc3)ccc2=O)c(F)c1)C(=O)OC1CCCC1 [Example 15] | < 100 nM | < 100 nM | > 1000 nM
Cc1cc(C(=O)c2ccc(=O)n(-c3c(F)cc(OCCCN[C@@H](CC(C)C)C(=O)OC4CCCC4)cc3F)c2N)ccc1F [Example 19, Cyclopentyl(S)-2-(3-{4-[6-Amino-5-(4-fluoro-3-methylbenzoyl)-2-oxo-2H-pyridin-1-yl]-3,5-difluorophenoxy}propylamino)-4-methylpentanoate] | < 100 nM | < 100 nM | > 1000 nM
Nc1c(C(=O)c2ccc(F)cc2F)ccc(=O)n1-c1c(F)cc(OCCCN[C@H](C(=O)OC2CCCC2)c2ccccc2)cc1F [Example 20, Cyclopentyl(S)-(3-{4-[6-Amino-5-(2,4-difluorobenzoyl)-2-oxo-2H-pyridin-1-yl]-3,5-difluorophenoxy}propylamino)phenyl acetate] | < 100 nM | < 100 nM | 100 to 1000 nM
CC(C)C[C@H](NCCCc1ccc(-n2c(N)c(C(=O)c3ccc(F)cc3)ccc2=O)cc1)C(=O)OC1CCCC1 [Example 67, Cyclopentyl N-[3-(4-{6-amino-5-[(4-fluorophenyl)carbonyl]-2-oxopyridin-1(2H)-yl}phenyl)propyl]-L-leucinate] | 100 to 1000 nM | 100 to 1000 nM | > 1000 nM
CC(C)C[C@H](NCc1ccc(-n2c(N)c(C(=O)c3ccc(F)cc3F)ccc2=O)cc1)C(=O)OC1CCCC1 [Example 9, Cyclopentyl(S)-2-{4-[6-Amino-5-(2,4-difluorobenzoyl)-2-oxo-2H-pyridin-1-yl]benzylamino}-4-methylpentanoate] | 100 to 1000 nM | < 100 nM | > 1000 nM
CC(C)C[C@H](NCCCOc1ccc(-n2c(N)c(C(=O)c3ccc(F)cc3)ccc2=O)cc1)C(=O)OC1CCCC1 [Example 25, Cyclopentyl(S)-2-(3-{4-[6-Amino-5-(4-fluorobenzoyl)-2-oxo-2H-pyridin-1-yl]phenoxy}propylamino)-4-methylpentanoate] | 100 to 1000 nM | < 100 nM | > 1000 nM
CC(C)C[C@H](NCCc1ccc(-n2c(N)c(C(=O)c3ccc(F)cc3)ccc2=O)cc1)C(=O)OC(C)(C)C [Example 58, tert-Butyl N-[2-(4-{6-amino-5-[(4-fluorophenyl)carbonyl]-2-oxopyridin-1(2H)-yl}phenyl)ethyl]-L-leucinate] | < 100 nM | 100 to 1000 nM | 100 to 1000 nM
CC(C)C[C@H](NCc1ccc(-n2c(N)c(C(=O)c3ccc(F)cc3)ccc2=O)cc1)C(=O)OC1CCCC1 [Example 3, Cyclopentyl(S)-2-{4-[6-Amino-5-(4-fluorobenzoyl)-2-oxo-2H-pyridin-1-yl]benzylamino}-4-methylpentanoate] | > 1000 nM | 100 to 1000 nM | > 1000 nM
Nc1c(C(=O)c2ccc(F)cc2F)ccc(=O)n1-c1ccc(OCCCN[C@@H](Cc2ccccc2)C(=O)OC2CCCC2)cc1 [Example 29, Cyclopentyl(S)-2-(3-{4-[6-Amino-5-(2,4-difluorobenzoyl)-2-oxo-2H-pyridin-1-yl]phenoxy}propylamino)-3-phenyl propionate] | 100 to 1000 nM | < 100 nM | 
